Laboratory results published in patent US20240132480A1, “INHIBITORS OF MYCOBACTERIUM TUBERCULOSIS LIPOAMIDE DEHYDROGENASE” (Cornell University, priority 2021, published 2024).
Read-outs that look alike come from different tables or passages of the source.

What was measured:
Mtb Lpd = Mtb Lpd (Mycobacterium tuberculosis (strain ATCC 25618 / H37Rv), UniProt P9WHH9); assay type: biochemical
[1] = microsomes
[2] = 30 min preincubation, read-out: LPD IC50 (μM) w/ 30 min preincubation

CN(C)CCOc1ccc(NC(=O)CN(C)S(=O)(=O)c2cccc3cn[nH]c23)cc1Cl [Example 164]
IC50 (Mtb Lpd; read-out: LPD IC50): 0.085 µM | Human Liver Microsome Stability [1]: -16 µL/min/mg

Cc1cc(S(=O)(=O)N(C)CC(=O)Nc2ccc3c(c2)OCCN3C2COC2)c2[nH]c(C#N)cc2c1 [Example 189]
IC50 (Mtb Lpd; [2]): 0.018 µM | IC50 (Mtb Lpd; read-out: LPD IC50): 0.076 µM | Human Liver Microsome Stability [1]: 142 µL/min/mg

CN(CC(=O)Nc1ccn(C)c(=O)c1)S(=O)(=O)c1cc(C(F)F)cc2cn[nH]c12 [Example 37]
IC50 (Mtb Lpd; read-out: LPD IC50): 0.0474 µM | Human Liver Microsome Stability [1]: 22 µL/min/mg

Cc1cc(S(=O)(=O)N2CC[C@H]2C(=O)Nc2ccc3c(c2)N(C)CCO3)c2[nH]ncc2c1 [Example 41]
IC50 (Mtb Lpd; read-out: LPD IC50): 0.0356 µM | Human Liver Microsome Stability [1]: 197 µL/min/mg

CC#CCNC(=O)CN(C)S(=O)(=O)c1cc(C)cc2cn[nH]c12 [Example 204]
IC50 (Mtb Lpd; [2]): 0.024 µM | IC50 (Mtb Lpd; read-out: LPD IC50): 0.045 µM | Human Liver Microsome Stability [1]: 19 µL/min/mg

Cc1cc(S(=O)(=O)N(C)CC(=O)Nc2ccn(C)c(=O)c2)c2n[nH]c(F)c2c1 [Example 95]
IC50 (Mtb Lpd; read-out: LPD IC50): 0.0513 µM | Human Liver Microsome Stability [1]: 21 µL/min/mg

Cc1cc(S(=O)(=O)N(C)CC(=O)Nc2ccc3c(c2)OC(C)(C)C(=O)N3C)c2n[nH]cc2c1 [Example 159]
IC50 (Mtb Lpd; read-out: LPD IC50): 0.019 µM | Human Liver Microsome Stability [1]: 67 µL/min/mg

Cc1cc(S(=O)(=O)N(C)CC(=O)NC2COC2)c2n[nH]cc2c1 [Example 50]
IC50 (Mtb Lpd; read-out: LPD IC50): 0.0738 µM | Human Liver Microsome Stability [1]: 8 µL/min/mg

Cc1cc(S(=O)(=O)N(C)CC(=O)Nc2ccn(C)c(=O)c2)c2[nH]ccc2c1 [Example 23]
IC50 (Mtb Lpd; read-out: LPD IC50): 0.0993 µM | Human Liver Microsome Stability [1]: 19 µL/min/mg

Cc1cc(S(=O)(=O)N(C)CC(=O)Nc2ccn(C(C)C)c(=O)c2)c2[nH]ncc2c1 [Example 16]
IC50 (Mtb Lpd; read-out: LPD IC50): 0.0508 µM | Human Liver Microsome Stability [1]: 35 µL/min/mg

Cc1cc(S(=O)(=O)N(C)CC(=O)Nc2ccc3c(c2)OCCN3C2CCOCC2)c2n[nH]c(F)c2c1 [Example 121]
IC50 (Mtb Lpd; read-out: LPD IC50): 0.0253 µM | Human Liver Microsome Stability [1]: 125 µL/min/mg

Cc1cc(NC(=O)CN(C)S(=O)(=O)c2c(C)c(C)cc3cn[nH]c23)ccc1N1CCOCC1 [Example 19]
IC50 (Mtb Lpd; read-out: LPD IC50): 0.0469 µM | Human Liver Microsome Stability [1]: 253 µL/min/mg

CC(=O)N1CCOc2cc(NC(=O)CN(C)S(=O)(=O)c3cc(C)cc4cn[nH]c34)ccc21 [Example 90]
Human Liver Microsome Stability [1]: 18 µL/min/mg

CCN(CC(=O)Nc1ccc2c(c1)OCCN2C)S(=O)(=O)c1cc(C)cc2cn[nH]c12 [Example 88]
Human Liver Microsome Stability [1]: 46 µL/min/mg

Cc1cc(S(=O)(=O)N(C)CC(=O)Nc2ccn(C)c(=O)c2)c2[nH]ncc2c1 [Example 6]
Human Liver Microsome Stability [1]: -11 µL/min/mg

COc1ccc(NC(=O)CN(C)S(=O)(=O)c2cc(C)cc3c2NC(=O)C3)cc1Cl [Example 2, N-(3-chloro-4-methoxyphenyl)-2-((N,5-dimethyl-2-oxoindoline)-7-sulfonamido)acetamide]
Human Liver Microsome Stability [1]: 490 µL/min/mg

CC#CCNC(=O)CN(C)S(=O)(=O)c1cc(C)cc2cc(C#N)[nH]c12 [Example 210]
Human Liver Microsome Stability [1]: 39 µL/min/mg

Cc1cc(S(=O)(=O)N(C)CC(=O)Nc2ccc3c(c2)OCCN3C)c2[nH]nc(C)c2c1 [Example 92]
Human Liver Microsome Stability [1]: 19 µL/min/mg

CN(CC(=O)Nc1ccn(C)c(=O)c1)S(=O)(=O)c1cc(F)cc2cn[nH]c12 [Example 93]
Human Liver Microsome Stability [1]: 6 µL/min/mg

O=C(Nc1ccc2c(c1)OCCN2C1COC1)[C@@H]1CCN1S(=O)(=O)c1cc(C(F)F)cc2cn[nH]c12 [Example 180, (S)-1-((5-(difluoromethyl)-1H-indazol-7-yl)sulfonyl)-N-(4-(oxetan-3-yl)-3,4-dihydro-2H-benzo[b][1,4]oxazin-7-yl)azetidine-2-carboxamide]
Human Liver Microsome Stability [1]: 61 µL/min/mg

Cc1cc(S(=O)(=O)N(C)CC(=O)NC2CCN(C)C(=O)C2)c2n[nH]cc2c1 (stereo not drawn) [Example 68]
IC50 (Mtb Lpd; read-out: LPD IC50): 0.149 µM

Cc1cc(S(=O)(=O)N(C)CC(=O)NC2C(=O)N(C)c3ccccc32)c2n[nH]cc2c1 (stereo not drawn) [Example 79]
IC50 (Mtb Lpd; read-out: LPD IC50): 0.779 µM
